Reference: ChEMBL document CHEMBL4270561, “Biological activity of doubly modified salinomycin analogs - Evaluation in vitro and ex vivo” (Eur J Med Chem, 2018)

Assays:
[1] = Antiproliferative activity against human ALL5 cells after 120 hrs by MTT assay; type: functional, cell-based; settings: ALL5, 120 h
[2] = system: LoVo; experiment: Antiproliferative activity against human LoVo cells after 72 hrs by SRB assay; type: functional, cell-based
[3] = Antiproliferative activity against human LoVo/DX cells after 72 hrs by SRB assay; type: functional, cell-based
[4] = system: JIMT-1; experiment: Antiproliferative activity against human JIMT1 cells after 72 hrs by SRB assay; type: functional, cell-based; settings: JIMT-1, 72 h
[5] = system: SK-BR-3; experiment: Antiproliferative activity against human SK-BR-3 cells after 72 hrs by SRB assay; type: functional, cell-based; settings: SK-BR-3, 72 h
[6] = system: MCF7; experiment: Antiproliferative activity against human MCF7 cells after 72 hrs by SRB assay; type: functional, cell-based; settings: MCF7, 72 h
[7] = system: MCF-10A; experiment: Antiproliferative activity against human MCF10A cells after 72 hrs by SRB assay; type: cell-based
[8] = Cell cycle arrest in human ALL5 cells assessed as accumulation at sub-G1 phase at 5 times antiproliferative IC50 after 24 hrs by propidium iodide staining based flow cytometry (reference value: 6.07%); type: functional
[9] = Cell cycle arrest in human ALL5 cells assessed as accumulation at G0/G1 phase at 5 times antiproliferative IC50 after 24 hrs by propidium iodide staining based flow cytometry (reference value: 79.7%); type: functional
[10] = Cell cycle arrest in human ALL5 cells assessed as accumulation at S-phase at 5 times antiproliferative IC50 after 24 hrs by propidium iodide staining based flow cytometry (reference value: 6.76%); type: functional
[11] = Cell cycle arrest in human ALL5 cells assessed as accumulation at G2/M-phase at 5 times antiproliferative IC50 after 24 hrs by propidium iodide staining based flow cytometry (reference value: 7.98%); type: functional
[12] = Cell cycle arrest in human ALL5 cells assessed as accumulation at sub-G1 phase at 5 times antiproliferative IC50 after 48 hrs by propidium iodide staining based flow cytometry (reference value: 7.8%); type: functional
[13] = Cell cycle arrest in human ALL5 cells assessed as accumulation at G0/G1 phase at 5 times antiproliferative IC50 after 48 hrs by propidium iodide staining based flow cytometry (reference value: 69.6%); type: functional
[14] = Cell cycle arrest in human ALL5 cells assessed as accumulation at S-phase at 5 times antiproliferative IC50 after 48 hrs by propidium iodide staining based flow cytometry (reference value: 9.82%); type: functional
[15] = Cell cycle arrest in human ALL5 cells assessed as accumulation at G2/M-phase at 5 times antiproliferative IC50 after 48 hrs by propidium iodide staining based flow cytometry (reference value: 13.2%); type: functional
[16] = Cell cycle arrest in human ALL5 cells assessed as accumulation at sub-G1 phase at 5 times antiproliferative IC50 after 96 hrs by propidium iodide staining based flow cytometry (reference value: 12%); type: functional
[17] = Cell cycle arrest in human ALL5 cells assessed as accumulation at G0/G1 phase at 5 times antiproliferative IC50 after 96 hrs by propidium iodide staining based flow cytometry (reference value: 69.8%); type: functional
[18] = Cell cycle arrest in human ALL5 cells assessed as accumulation at S-phase at 5 times antiproliferative IC50 after 96 hrs by propidium iodide staining based flow cytometry (reference value: 7.52%); type: functional
[19] = Cell cycle arrest in human ALL5 cells assessed as accumulation at G2/M-phase at 5 times antiproliferative IC50 after 96 hrs by propidium iodide staining based flow cytometry (reference value: 11.1%); type: functional
[20] = Selectivity index, ratio of IC50 for human MCF10A cells to IC50 for human LoVo/DX cells; type: toxicity; settings: MCF10A cells versus LoVo/DX cells, read-out: Ratio IC50
[21] = Resistance index, ratio of IC50 for human LoVo/DX cells to IC50 for human LoVo cells; type: functional
[22] = Selectivity index, ratio of IC50 for human MCF10A cells to IC50 for human ALL5 cells; type: toxicity; settings: MCF10A cells versus ALL5 cells, read-out: Ratio IC50
[23] = Selectivity index, ratio of IC50 for human MCF10A cells to IC50 for human LoVo cells; type: toxicity; settings: MCF10A cells versus LoVo cells, read-out: Ratio IC50
[24] = Selectivity index, ratio of IC50 for human MCF10A cells to IC50 for human JIMT1 cells; type: toxicity; settings: MCF10A cells versus JIMT1 cells, read-out: Ratio IC50
[25] = Selectivity index, ratio of IC50 for human MCF10A cells to IC50 for human SK-BR-3 cells; type: toxicity; settings: MCF10A cells versus SK-BR-3 cells, read-out: Ratio IC50
[26] = Selectivity index, ratio of IC50 for human MCF10A cells to IC50 for human MCF7 cells; type: toxicity; settings: MCF10A cells versus MCF7 cells, read-out: Ratio IC50
[27] = system: MCF-10A; experiment: Antiproliferative activity against human MCF10A cells at 100 ug/ml after 72 hrs by SRB assay relative to control; type: cell-based

SMILES	IC50 [1] [µM]	IC50 [2] [µM]	IC50 [3] [µM]	IC50 [4] [µM]	IC50 [5] [µM]	IC50 [6] [µM]	IC50 [7] [µM]	Activity [8] [%]	Activity [9] [%]	Activity [10] [%]	Activity [11] [%]	Activity [12] [%]	Activity [13] [%]	selectivity ratio [20]	Ratio IC50 [21]	selectivity ratio [22]	selectivity ratio [23]	selectivity ratio [24]	selectivity ratio [25]	selectivity ratio [26]	also measured
C#CCNC(=O)[C@H](CC)[C@H]1CC[C@H](C)[C@H]([C@@H](C)[C@H](O)[C@H](C)C(=O)[C@H](CC)[C@H]2O[C@]3(C=C[C@@H](OC(=O)NCC)[C@]4(CC[C@@](C)([C@H]5CC[C@](O)(CC)[C@H](C)O5)O4)O3)[C@H](C)C[C@@H]2C)O1	3.7	4.2	3.8	5.9	7.7	4.7	82	12.2	77.8	4.1	6.08	26.1	65.9	22	0.9	22	20	14	11	17	Activity [14]: 1.8%; Activity [15]: 6.44%; Activity [16]: 70.8%; Activity [17]: 25.2%; Activity [18]: 2.73%; Activity [19]: 1.55%
C#CCNC(=O)[C@H](CC)[C@H]1CC[C@H](C)[C@H]([C@@H](C)[C@H](O)[C@H](C)C(=O)[C@H](CC)[C@H]2O[C@]3(C=C[C@@H](OC(=O)OCC)[C@]4(CC[C@@](C)([C@H]5CC[C@](O)(CC)[C@H](C)O5)O4)O3)[C@H](C)C[C@@H]2C)O1	17	4.7	3.8	7.9	16	4.9	–	–	–	–	–	–	–	–	0.81	–	–	–	–	–	Activity [27]: <= 50%
CCNC(=O)O[C@@H]1C=C[C@]2(O[C@H]([C@@H](CC)C(=O)[C@@H](C)[C@@H](O)[C@H](C)[C@@H]3O[C@@H]([C@@H](CC)C(=O)NCCc4ccc(F)cc4)CC[C@@H]3C)[C@@H](C)C[C@H]2C)O[C@@]12CC[C@@](C)([C@H]1CC[C@](O)(CC)[C@H](C)O1)O2	2.9	3.5	3.3	4.4	4.3	3.8	58	9.23	80.9	3.8	6.14	21.8	71.6	18	0.94	20	17	13	13	15	Activity [14]: 1.5%; Activity [15]: 5.34%; Activity [16]: 53.7%; Activity [17]: 42.5%; Activity [18]: 2.28%; Activity [19]: 1.82%
CC[C@@H](C(=O)[C@@H](C)[C@@H](O)[C@H](C)[C@@H]1O[C@@H]([C@@H](CC)C(=O)OCC(F)(F)F)CC[C@@H]1C)[C@H]1O[C@]2(C=C[C@@H](O)[C@]3(CC[C@@](C)([C@H]4CC[C@](O)(CC)[C@H](C)O4)O3)O2)[C@H](C)C[C@@H]1C	1.2	3.9	3.9	4.6	17	4.4	43	–	–	–	–	–	–	11	1	36	11	9.3	2.5	9.8	–
CCNC(=O)O[C@@H]1C=C[C@]2(O[C@H]([C@@H](CC)C(=O)[C@@H](C)[C@@H](O)[C@H](C)[C@@H]3O[C@@H]([C@@H](CC)C(=O)OCC(F)(F)F)CC[C@@H]3C)[C@@H](C)C[C@H]2C)O[C@@]12CC[C@@](C)([C@H]1CC[C@](O)(CC)[C@H](C)O1)O2	1.5	5.3	7.5	11	64	6.1	60	11	76	4.98	8.15	19.8	64.1	8	1.4	40	11	5.5	0.94	9.8	Activity [14]: 4.5%; Activity [15]: 11.8%; Activity [16]: 27.8%; Activity [17]: 56%; Activity [18]: 5.42%; Activity [19]: 11%
CC[C@@H](C(=O)[C@@H](C)[C@@H](O)[C@H](C)[C@@H]1O[C@@H]([C@@H](CC)C(=O)NCCc2ccc(F)cc2)CC[C@@H]1C)[C@H]1O[C@]2(C=C[C@@H](O)[C@]3(CC[C@@](C)([C@H]4CC[C@](O)(CC)[C@H](C)O4)O3)O2)[C@H](C)C[C@@H]1C	1.7	3.8	2.5	5.1	5.6	4.1	40	–	–	–	–	–	–	16	0.66	24	11	7.8	7.1	9.8	–
C#CCOC(=O)[C@H](CC)[C@H]1CC[C@H](C)[C@H]([C@@H](C)[C@H](O)[C@H](C)C(=O)[C@H](CC)[C@H]2O[C@]3(C=C[C@@H](O)[C@]4(CC[C@@](C)([C@H]5CC[C@](O)(CC)[C@H](C)O5)O4)O3)[C@H](C)C[C@@H]2C)O1	3.3	3.9	2.6	6.2	8.5	4.3	54	16.2	71.3	4.34	8.24	39.8	51.7	21	0.67	16	14	8.7	6.4	13	Activity [14]: 3.58%; Activity [15]: 5.35%; Activity [16]: 49.8%; Activity [17]: 42.8%; Activity [18]: 2.95%; Activity [19]: 4.64%
C#CCNC(=O)[C@H](CC)[C@H]1CC[C@H](C)[C@H]([C@@H](C)[C@H](O)[C@H](C)C(=O)[C@H](CC)[C@H]2O[C@]3(C=C[C@@H](OC(C)=O)[C@]4(CC[C@@](C)([C@H]5CC[C@](O)(CC)[C@H](C)O5)O4)O3)[C@H](C)C[C@@H]2C)O1	4	4.4	3.7	17	12	5.8	92	14.5	77.1	3.48	5.01	34.3	58.9	25	0.84	23	21	5.4	7.7	16	Activity [14]: 1.75%; Activity [15]: 5.11%; Activity [16]: 76.3%; Activity [17]: 20.6%; Activity [18]: 2.15%; Activity [19]: 1.27%
